How the values were obtained:
[1] = tested on: porcine model of complete heart block; experiment: Porcine model of complete heart block; type: in vivo, pig
Text: The inventors next sought to test the TBX18 mRNA in a large animal model, specifically a porcine model, of complete heart block. The inventors used a control of GFP mRNA+A83-01. On Day 1, the inventors created an intracardiac map by implanting a pacemaker and administered the TBX18 mRNA or control. Weeks 2, 4, and 6 after administration included an interrogation of the pacemaker and an isoproterenol challenge to measure the animals' maximum heart rate (max HR). In Week 6, arrythmia testing and intracardiac mapping were performed and vital organs were harvested. […] The proper diurnal response in TBX18-injected pig is in line with the average heart rate data from FIG. 18.

[2] = tested on: neonatal rat ventricular cardiomyocytes; experiment: TBX18 IVT mRNA entry by qPCR normalized to GAPDH; type: cell-based; conditions: 333 ng mRNA with ViroMer Red, 96-well plate
Protocol: Freshly-isolated neonatal rat ventricular cardiomyocytes were transfected with IVT mRNA for human TBX18 gene. Somatic gene transfer was performed by adding 333 ng of TBX18 IVT mRNA with a transfection reagent, ViroMer Red, to a well in a 96-well plate seeded with the neonatal rat ventricular cardiomyocytes. TBX18 IVT mRNA that successfully entered the cardiomyocytes were quantitated by quantitative real-time PCR (qPCR), and the TBX18 mRNA level was normalized to an endogenous housekeeping gene, GAPDH, over time.

[3] = tested on: neonatal rat ventricular cardiomyocytes; experiment: TBX18 protein expression by immunoblot normalized to GAPDH; type: cell-based; conditions: 333 ng mRNA with ViroMer Red, 96-well plate
Protocol: Freshly-isolated neonatal rat ventricular cardiomyocytes were transfected with IVT mRNA for human TBX18 gene. Somatic gene transfer was performed by adding 333 ng of TBX18 IVT mRNA with a transfection reagent, ViroMer Red, to a well in a 96-well plate seeded with the neonatal rat ventricular cardiomyocytes. TBX18 protein expression from the transfected IVT mRNA in the cardiomyocytes were quantitated by specific antibodies to TBX18 on immunoblots and normalized to an endogenous housekeeping protein, GAPDH. […] The TBX18 protein expression was also transient, in line with the expression kinetics of the delivered mRNA. This transient expression of TBX18 closely mimicked its native expression during embryonic development, and is ideal for the intended purpose as a reprogramming agent to convert ordinary heart muscle cells to specialized cardiac pacemaker cells. In FIG. 12, D denotes days after transfection, and each time point consists of two technical replicates.

[4] = tested on: neonatal rat ventricular myocytes; experiment: Spontaneous electrical activity on multi-electrode array; type: cell-based; conditions: control cardiomyocytes: infrequent and low rate activity
Protocol: Spontaneous electrical activity from neonatal rat ventricular myocytes were recorded on a non-invasive, multi-electrode array platform. […] The number of electrical activity (Count) was plotted as a function of spontaneous beating rates (in beats per minute, BPM) of the cardiomyocytes.

[5] = tested on: rat model of complete heart block; experiment: Effect of TGF-beta small molecule inhibitor on ventricular pacing with TBX18 mRNA; type: in vivo; conditions: A83-01 released by osmotic pump
Protocol: On Day 0, an osmotic pump releasing A83-01 (a TGF-beta inhibitor, Sigma Aldrich) was implanted into the rats. On Day 1, TBX18 mRNA was injected into the rats and a telemetry device was also implanted. Two doses of TBX18 mRNA were given to the rats: (i) a low dose of 100 μg TBX18 mRNA with 68.4 μl RNA-free phosphate-buffered saline (PBS), or (ii) a high dose of 300 μg TBX18 mRNA with 205 μl RNA-free PBS. A continuous telemetry recording of each rat's electrocardiogram (ECG) was made for 21 days after implantation of the telemetry device. In addition, 3-lead surface ECGs were performed on anesthetized animals on Days 7, 14, and 21 along with an isoproterenol challenge. The heart was harvested from each animal on Day 21.
The inventors then determined the effects of including a TGF-beta small molecule inhibitor on ventricular pacing with TBX18 mRNA (FIG. 16).

[6] = tested on: complete atrioventricular block (CAVB) model in rats; experiment: Telemetry ECG in conscious rats with complete atrioventricular block; type: in vivo, rat; conditions: for heart rate during isoproterenol treatment: conscious
Protocol: (§1) The inventors next studied the effects of administering TBX18 mRNA to a rat model of a complete atrioventricular block. […] In this study, the inventors created a complete atrioventricular block (CAVB) model in rats and monitored the rats for one week to confirm stable and persistent CAVB. Next, TBX18 mRNA was injected into the ventricular apex of each rat and a telemetry device was implanted. Some rats received a high dose of TBX18 mRNA, which was 300 μg TBX mRNA with 205 μl RNA free PBS. The inventors continuously monitored and recorded data from the telemetry device including electrocardiograms for 21 days. The inventors performed 3-lead surface ECGs on anesthetized animals on days 7, 14 and 21 with an isoproterenol challenge, and harvested the heart on day 21.
ECG data was then compared with telemetry data. Before injection of TBX18 mRNA, telemetry biopotential electrodes were sutured to the chest wall and housed in the abdominal cavity of the rat. Telemetry 2-lead ECG signal was recorded wirelessly for conscious, awake rats. The day before injection of TBX18 mRNA, AV block was present in ECG recordings with an average heart rate of 120 bpm, and these values were used as the baseline.

[7] = tested on: complete atrioventricular block (CAVB) model in rats; experiment: 3-lead surface ECG in rat complete atrioventricular block model; type: in vivo
Protocol: as §1
The inventors determined if there was antegrade conduction (meaning that the direction of cardiac conduction occurred from the SA node, AV node and down toward the apex of the heart) or retrograde conduction (meaning that the direction of cardiac conduction occurred from the site of TBX18 delivery which was the apex of the left ventricle). In order to determine this, the inventors determined a baseline ECG under anesthesia before TBX18 mRNA injection by recording three-lead surface ECGs for ten minutes while the rat was asleep under anesthesia. Recordings confirmed the presence of AV conduction block with multiple P waves between each QRS complex, inconsistent P-R intervals, and a relatively low heart rate of 100 bpm, compared to a healthy rate of over 300 bpm for rats.

[8] = tested on: neonatal rat ventricular cardiomyocytes; experiment: Nuclear localization of TBX18 (FLAG) by immunostaining; type: cell-based; conditions: 24 hrs post-transfection
Text: TBX18 is a transcription factor, and thus should be targeted to the nuclei upon proper translation from mRNA. Freshly-isolated neonatal rat ventricular cardiomyocytes were transfected with IVT mRNA for human TBX18 gene. TBX18 mRNA was designed with a tag peptide (DYKDDDDK (SEQ ID NO:9, also known as a “FLAG” epitope) fused to the C-terminal end of TBX18 for subcellular identification of TBX18 with an antibody against FLAG. Sarcomeric alpha-actinin (α-SA) and DAPI label cardiomyocytes and all nuclei, respectively. Arrows (co-localization of FLAG and DAPI) indicate nuclear localization of TBX18 protein. Three transfection conditions were tested in a 24-well plate, and immunostaining was performed at 24 hrs post-transfection.

TBX18 mRNA: IVT mRNA for human TBX18 gene, with FLAG tag peptide fused to the C-terminal end of TBX18
R-R interval as the pig becomes awake in the morning ([1]; diurnal response): shorter R-R interval (faster heart rate)
time after delivery within which ventricular pacing was created ([1]; pig, in vivo): 7 to 10 days
entry of IVT mRNA into cardiomyocytes [2]: efficient entry
time post-transfection to TBX18 protein expression [3]: less than 6 hours
spontaneous pacemaker activity [4]: highly active, high rate pacemaker activity
effect on ventricular pacing / block [5]: created a complete ventricular block
ventricular pacing by continuous recording of heart rate and heart rate histograms ([6]; histograms on Days 21 after injection): created ventricular pacing
heart rate during isoproterenol treatment ([6]; one week after delivery, baseline 120 bpm): 265 bpm
heart rate during isoproterenol treatment ([6]; three weeks after delivery): 260 bpm
heart rate during isoproterenol treatment ([6]; two weeks after delivery): 206 bpm
biological cardiac pacing ([7]; focal intramyocardial injection into ventricular apex): created in vivo biological cardiac pacing
conduction vector (cardiac axis mapping) ([7]; one week after injection, baseline 77 degrees): 49 degrees
heart rate with isoproterenol ([7]; one week after injection, isoproterenol challenge): 229 bpm
average heart rate ([7]; one week after injection, under anesthesia, baseline 100 bpm): 120 bpm
average heart rate ([7]; three weeks after injection): 137 bpm
conduction vector of normal QRS complexes ([7]; three weeks after injection, anterograde): 48 degrees
conduction vector of transient QRS complexes with isoproterenol ([7]; three weeks after injection, isoproterenol, retrograde): −110 degrees
conduction vector of PVCs ([7]; three weeks after injection, retrograde): −116 degrees
cardiomyocytes positive for nuclear TBX18 (FLAG positive) ([8]; 0.5 μg of IVT mRNA+0.2 μl of ViroMer Red): 4%
cardiomyocytes positive for nuclear TBX18 (FLAG positive) ([8]; 1 μg of IVT mRNA+0.1 μl of ViroMer Red): 2%
cardiomyocytes positive for nuclear TBX18 (FLAG positive) ([8]; 1 μg of IVT mRNA+0.2 μl of ViroMer Red): 21%

From patent publication US20210000879A1, “METHODS AND COMPOSITIONS FOR MRNA-BASED MODULATION AND DETECTION OF CELL PHENOTYPES” (Georgia Tech Research Corporation, priority 2018, published 2021)
